Laboratory results from PubChem BioAssay (NCI).
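A five-concentration, 48-hour dose response in 96-well plates underlies each endpoint, interpolated linearly between surrounding concentrations. At the GI50, growth is halved. TGI denotes the concentration required for complete inhibition of growth.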

Test system: MCF7 breast
Assay: inhibition of tumour cell growth, NCI panel, 48 h

| Structure (SMILES) | GI50 | TGI |
| --- | --- | --- |
| COc1cc(NC(C)CCCN)c2nccc(C)c2c1OC (stereo unspecified) | 0.372 µM | 1.71 µM |
| CC(=O)O[C@@H]1C[C@]2(C(C)C)O[C@@]1(C)[C@@H]1CCC(C)=C1[C@@H]2OC(=O)/C=C/c1ccccc1 | 19.5 µM | > 100 µM |
| O=C(Nc1cccc(Cl)c1Cl)c1cccc(NC2=C(Cl)C(=O)N(Cc3ccccc3)C2=O)c1 | 11.3 µM | > 100 µM |
| COc1cc2c(cc1OC)C13CCN4CC5=CCOC6CC(=O)N2C1C6C5CC43O (stereo unspecified) |  | > 100 µM |

Test system: MDA-MB-435
Assay: inhibition of tumour cell growth, NCI panel, 48 h

| Structure (SMILES) | GI50 | TGI |
| --- | --- | --- |
| CC(=O)Oc1ccccc1C(=O)N=C1[Se]CCN1C(=O)c1ccccc1OC(C)=O | 0.462 µM | 1.87 µM |
| CSC1(CC(=O)N(C)C)C(=O)Nc2ccccc21 (stereo unspecified) |  | > 100 µM |
| COc1cc(/C=C2\C(=O)Nc3ccc(F)cc32)cc(OC)c1OC | 5.5 µM | > 100 µM |
| C#C[C@]1(O)CC[C@H]2[C@@H]3CC=C4c5sc(Nc6ccccc6)nc5CC[C@]4(C)[C@H]3CC[C@@]21C | 3 µM | 11.2 µM |
| Cc1cn2c(/C=C3/C(=O)Nc4ccccc43)c(-c3ccc(Cl)cc3)nc2s1 | 8.07 µM | 14.8 µM |
| O=C1c2ccn(CCCCNC(CO)(CO)CO)c2C(=O)c2c1c(O)c1ccccc1c2O | 0.992 µM | 2.42 µM |
| CC(=O)c1c(CBr)n([O-])c2ccccc2[n+]1=O | 12.5 µM | 25.6 µM |
| C#CC(=O)Nc1cccc(Nc2nc3c(c(NCc4ccccc4)n2)CCCC3)c1 | 1.02 µM | 2.24 µM |
| Nc1c(C(=O)N/N=C/c2ccc(-c3ccc(Cl)cc3)o2)cnn1-c1ccnc2c(C(F)(F)F)cccc12 | > 100 µM | > 100 µM |
| c1ccc2c3ccn4cc5c(cc4c-3nc2c1)CCCC5 | 1.56 µM | 4.19 µM |
| N#CC1Nc2ccccc2[C@@H](O)C1O (stereo partly specified) |  | > 100 µM |
| Cc1c(C2Nc3ccccc3C2C)[nH]c2ccccc12 (stereo unspecified) | 10.6 µM | 24.6 µM |
| CCN(CC)CC(C)(C)C(=O)/C=C/c1ccc(Cl)c(Cl)c1 | 1.6 µM | 3.28 µM |
| CCN(CC)CCNCC(=O)Oc1ccc(/C=C/C(=O)CC(=O)/C=C/c2ccc(OC(=O)CNCCN(CC)CC)c(OC)c2)cc1OC | 2.48 µM | 12.4 µM |
| COc1cc(NC(C)CCCN)c2nccc(C)c2c1OC (stereo unspecified) | 17.1 µM | 32.7 µM |
| CC(=O)O[C@@H]1C[C@]2(C(C)C)O[C@@]1(C)[C@@H]1CCC(C)=C1[C@@H]2OC(=O)/C=C/c1ccccc1 | 39.1 µM | > 100 µM |
| O=C(Nc1cccc(Cl)c1Cl)c1cccc(NC2=C(Cl)C(=O)N(Cc3ccccc3)C2=O)c1 | 20.4 µM | 53.2 µM |
| COc1cc2c(cc1OC)C13CCN4CC5=CCOC6CC(=O)N2C1C6C5CC43O (stereo unspecified) |  | > 100 µM |

Test system: NCI/ADR-RES ovarian
Assay: inhibition of tumour cell growth, NCI panel, 48 h

| Structure (SMILES) | TGI | GI50 |
| --- | --- | --- |
| CSC1(CC(=O)N(C)C)C(=O)Nc2ccccc21 (stereo unspecified) | > 100 µM |  |
| COc1cc(/C=C2\C(=O)Nc3ccc(F)cc32)cc(OC)c1OC | > 100 µM | 18.9 µM |
| C#C[C@]1(O)CC[C@H]2[C@@H]3CC=C4c5sc(Nc6ccccc6)nc5CC[C@]4(C)[C@H]3CC[C@@]21C | > 100 µM | 2.15 µM |
| O=C1c2ccn(CCCCNC(CO)(CO)CO)c2C(=O)c2c1c(O)c1ccccc1c2O | 42.3 µM | 16.3 µM |
| CC(=O)c1c(CBr)n([O-])c2ccccc2[n+]1=O | 50.3 µM | 19.5 µM |
| Nc1c(C(=O)N/N=C/c2ccc(-c3ccc(Cl)cc3)o2)cnn1-c1ccnc2c(C(F)(F)F)cccc12 | > 100 µM | > 100 µM |
| c1ccc2c3ccn4cc5c(cc4c-3nc2c1)CCCC5 | > 100 µM | 55 µM |
| N#CC1Nc2ccccc2[C@@H](O)C1O (stereo partly specified) | > 100 µM |  |
| Cc1c(C2Nc3ccccc3C2C)[nH]c2ccccc12 (stereo unspecified) | 30.7 µM | 10.4 µM |
| CCN(CC)CCNCC(=O)Oc1ccc(/C=C/C(=O)CC(=O)/C=C/c2ccc(OC(=O)CNCCN(CC)CC)c(OC)c2)cc1OC | > 100 µM | 5.73 µM |
| COc1cc(NC(C)CCCN)c2nccc(C)c2c1OC (stereo unspecified) | 74.6 µM | 20.5 µM |
| CC(=O)O[C@@H]1C[C@]2(C(C)C)O[C@@]1(C)[C@@H]1CCC(C)=C1[C@@H]2OC(=O)/C=C/c1ccccc1 | > 100 µM | 23.1 µM |
| O=C(Nc1cccc(Cl)c1Cl)c1cccc(NC2=C(Cl)C(=O)N(Cc3ccccc3)C2=O)c1 | 62.5 µM | 12.6 µM |
| COc1cc2c(cc1OC)C13CCN4CC5=CCOC6CC(=O)N2C1C6C5CC43O (stereo unspecified) | > 100 µM |  |

Test system: OVCAR-5 ovarian
Assay: inhibition of tumour cell growth, NCI panel, 48 h

| Structure (SMILES) | GI50 | TGI |
| --- | --- | --- |
| CC(=O)Oc1ccccc1C(=O)N=C1[Se]CCN1C(=O)c1ccccc1OC(C)=O | 0.839 µM | 6.11 µM |
| O=S(O)CCCCSSCc1ccccc1CSSCCCCS(=O)O |  | > 100 µM |
| CCOC(=O)c1[nH]c(COC(C)=O)c(CCCOC(C)=O)c1CCCOC(C)=O |  | > 100 µM |
| CSC1(CC(=O)N(C)C)C(=O)Nc2ccccc21 (stereo unspecified) |  | > 100 µM |
| COc1cc(/C=C2\C(=O)Nc3ccc(F)cc32)cc(OC)c1OC | > 100 µM | > 100 µM |
| C#C[C@]1(O)CC[C@H]2[C@@H]3CC=C4c5sc(Nc6ccccc6)nc5CC[C@]4(C)[C@H]3CC[C@@]21C | 2.44 µM | 9.68 µM |
| O=C(Nc1ccc([N+](=O)[O-])cc1)C1C(=O)C(=O)N(c2ccc([N+](=O)[O-])cc2)C1=O (stereo unspecified) |  | > 100 µM |
| O=C(CCC/C(CC(=O)c1ccc(Br)cc1)=N\O)Nc1ccccc1 |  | > 100 µM |
| O=C(/C=C/c1c(O)ccc2ccccc12)c1ccc2ccccc2c1 |  | > 100 µM |
| CCOC(=O)C1N(S(=O)(=O)c2ccc(C)cc2)CCC12C(c1ccc(OC)cc1)NC1CCCCC12 (stereo unspecified) |  | > 100 µM |
| COc1ccccc1NC(=O)C1=C(C)NC(C)=C(C(=O)Nc2ccccc2OC)C1c1ccc([N+](=O)[O-])cc1 |  | 90.8 µM |
| O=C(CSc1nnc(-c2ccccc2NC(=O)C(F)(F)F)c(=O)[nH]1)NC(=O)Nc1ccccc1 |  | > 100 µM |
| O=C1c2ccn(CCCCNC(CO)(CO)CO)c2C(=O)c2c1c(O)c1ccccc1c2O | 1.91 µM | 4.4 µM |
| COC(=O)/C=C/C1C(C(=O)OC)C2(C(=O)OC)CCC1(C(=O)OC)N2 (stereo unspecified) |  | > 100 µM |
| CC(C)(C)N1CC2(CCCCC2)C1=O |  | > 100 µM |
| CC(=O)c1c(CBr)n([O-])c2ccccc2[n+]1=O | 18.5 µM | 44.4 µM |
| COc1ccc(C(=O)C(CO)Oc2ccccc2OC)cc1OC (stereo unspecified) |  | > 100 µM |
| N#CC(/C(=N/NC(=O)C(=O)NN)C(=O)NC12CC3CC(CC(C3)C1)C2)c1ccccc1 (stereo unspecified) |  | > 100 µM |
| CC(C)(C)C(=O)/C=C/c1ccc(Oc2ccccc2)cc1 |  | 33.8 µM |
| CN=NN(C)C(=O)NC |  | > 100 µM |
| Nc1c(C(=O)N/N=C/c2ccc(-c3ccc(Cl)cc3)o2)cnn1-c1ccnc2c(C(F)(F)F)cccc12 | > 100 µM | > 100 µM |
| c1ccc2c3ccn4cc5c(cc4c-3nc2c1)CCCC5 | 4.49 µM | 19.3 µM |
| CCCCCCCCCc1cc(=O)c2c(O)cccc2o1 |  | > 100 µM |
| N#CC1Nc2ccccc2[C@@H](O)C1O (stereo partly specified) |  | > 100 µM |
| Cc1c(C2Nc3ccccc3C2C)[nH]c2ccccc12 (stereo unspecified) | 14.8 µM | 30.9 µM |
| CCN(CC)CC(C)(C)C(=O)/C=C/c1ccc(Cl)c(Cl)c1 | 1.65 µM | 3.49 µM |
| CCN(CC)CCNCC(=O)Oc1ccc(/C=C/C(=O)CC(=O)/C=C/c2ccc(OC(=O)CNCCN(CC)CC)c(OC)c2)cc1OC | 3.83 µM | 15.1 µM |
| CCOC(=O)CCc1c(C)c2c(OC(C)=O)cc(OC(C)=O)cc2oc1=O |  | > 100 µM |
| COc1cc(NC(C)CCCN)c2nccc(C)c2c1OC (stereo unspecified) | 16.1 µM | 42.1 µM |
| O=C(CN1CCCCC1)N1CCc2c([nH]c3ccccc23)C1c1cccnc1 (stereo unspecified) |  | > 100 µM |
